Measurements taken from patent US11292767B2, “Heterocyclic inhibitors of MCT4” (Vettore, LLC, priority 2016, dated 2022).

Experiments:
MCT1 = MCT1 (Homo sapiens (Human), UniProt P53985); test: Assay 4: MCT1-mediated lactate transport in BT20 breast cancer cells; assay type: cell-based; conditions: lactate transport (Table 27)
Protocol: Preparing BCECF-Loaded Cells
10 µL of a 30 mM DMSO stock of BCECF-AM ester (Life Technologies) is added and the cells are incubated at 37° C. for 5 min. The cells are pelleted (300 g, 5 min), washed once with 1 mL Tyrode's Solution, pH 7.4, re-pelleted (300 g, 5 min), and resuspended in 1 mL Tyrode's Solution, pH 7.4.
Assay 4: MCT1-Mediated Lactate Transport in BT20 Breast Cancer Cells.
Preparation of BCECF loaded cells are as described for Assay 1. Lactate transport assay is as described for Assay 1, except 10 mM L-lactate (rather than 50 mM) is added.

[1] = Metabolic stability in human liver microsomes (in vitro t1/2); assay type: in vitro ADME; conditions: human liver microsomes 0.5 mg/mL, 2 μM compound; for Human microsome % 60 min: % remaining at 60 min
Protocol: (§1) Metabolic Stability Assays The following are assays that may be used to evaluate the metabolic stability of compounds of Formula (I) in human, rat, or mouse microsomes. The assays follow a common procedure recited below. 1. […] Two separated experiments were performed as follows. a) With NADPH: 10 μL of 20 mg/mL liver microsomes and 40 μL of 10 mM NADPH were added to the incubations. […] The final concentration of microsomes was 0.5 mg/mL. 3. The reaction was started with the addition of 4 μL of 200 μM control compound or test compound solutions. Verapamil was used as positive control in this study. The final concentration of test compound or control compound was 2 μM. 4. Aliquots of 50 μL were taken from the reaction solution at 0, 15, 30, 45 and 60 min. […] Samples were centrifuged at 3,220 g for 40 minutes. A 90 μL aliquot of the supernatant was mixed with 90 μL of ultra-pure H2O and then used for LC-MS/MS analysis. 5. Data analysis. All calculations were carried out using Microsoft Excel. Peak areas were determined from extracted ion chromatograms. The slope value, k, was determined by linear regression of the natural logarithm of the remaining percentage of the parent drug vs. incubation time curve. The in vitro half-life (in vitro t1/2) was determined from the slope value: in vitro t1/2=−(0.693)/k.

[2] = Metabolic stability in rat liver microsomes (in vitro t1/2); assay type: in vitro ADME; conditions: rat liver microsomes 0.5 mg/mL, 2 μM compound, % remaining at 60 min
Protocol: as §1

[3] = Metabolic stability in mouse liver microsomes (in vitro t1/2); assay type: in vitro ADME; conditions: mouse liver microsomes 0.5 mg/mL, 2 μM compound; for Mouse microsome % 60 min: % remaining at 60 min; for Mouse microsome t1/2, min: in vitro t1/2
Protocol: as §1

[4] = Pharmacokinetic assay in rat (IV 3 mg/kg, PO 10 mg/kg); assay type: in vivo; conditions: male, Sprague-Dawley, plasma, read-out: Rat F (%)
Description: Pharmacokinetic Assays in Mouse and Rat
The following are assays that may be used to evaluate the pharmacokinetic properties of Formula (I) in mouse or rat. The assays follow a common procedure recited below.
1. […] For PO (oral gavage), DMSO/PEG400 (10:90). Formulations freshly prepared on the day of dosing or prior to dosing. Storage at room temperature.
2. Test Species: For Mouse: Male CD1 strain, approximately 6-8 weeks in age, approximately 20-30 g. For Rat: Male Sprague-Dawley strain, approximately 6-8 weeks in age, approximately 200-300 g.
3. Dose Level: For IV, 3 mg/kg. For PO, 10 mg/kg.
4. Number of animals: 3 per assay.
5. PK time points: For IV (plasma): 5 min, 15 min, 1, 2, 4, 6, 8, 24 h post dose. For PO (plasma): 15 min, 30 min, 1, 2, 4, 6, 8, 24 h post dose.
6. Blood Sample Collection and Processing. Blood was collected (˜0.2 mL per time point) from jugular vein. Blood of each sample was transferred into plastic micro centrifuge tubes containing anticoagulant of EDTA-K2. Blood samples were centrifuged at 2,000 g for 5 minutes at 4° C. to obtain plasma.
7. Samples Analysis: Plasma samples were analyzed using LC/MS/MS method, and pharmacokinetic parameters (half-life: t1/2; oral bioavailability: F; volume of distribution: Vss).

CFA-induced arthritis [5] = test: Adjuvant-induced arthritis model in rat: Difference of Weight Bearing test (DWB); assay type: in vivo; conditions: SD rat, PO 3 days post CFA, compared to dexamethasone
CFA-induced arthritis [6] = test: Adjuvant-induced arthritis model in rat: Mechanical Allodynia test (MA); assay type: in vivo; conditions: SD rat, PO 3 days post CFA, compared to dexamethasone

MCT1, sequence (P53985 whole entry): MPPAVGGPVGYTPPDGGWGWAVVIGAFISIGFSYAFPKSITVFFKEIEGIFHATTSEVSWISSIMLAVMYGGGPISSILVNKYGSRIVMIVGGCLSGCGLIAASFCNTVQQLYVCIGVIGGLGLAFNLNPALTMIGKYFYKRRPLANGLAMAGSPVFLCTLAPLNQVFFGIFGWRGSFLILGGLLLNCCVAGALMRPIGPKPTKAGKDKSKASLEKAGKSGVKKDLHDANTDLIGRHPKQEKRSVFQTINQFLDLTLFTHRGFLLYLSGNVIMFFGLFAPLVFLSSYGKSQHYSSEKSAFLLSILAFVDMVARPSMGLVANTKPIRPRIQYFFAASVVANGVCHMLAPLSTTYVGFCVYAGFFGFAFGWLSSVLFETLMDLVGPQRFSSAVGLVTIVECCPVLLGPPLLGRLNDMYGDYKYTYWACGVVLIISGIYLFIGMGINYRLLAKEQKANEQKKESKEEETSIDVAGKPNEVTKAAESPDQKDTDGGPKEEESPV
MCT1, sequence (P35613 140-385 partner): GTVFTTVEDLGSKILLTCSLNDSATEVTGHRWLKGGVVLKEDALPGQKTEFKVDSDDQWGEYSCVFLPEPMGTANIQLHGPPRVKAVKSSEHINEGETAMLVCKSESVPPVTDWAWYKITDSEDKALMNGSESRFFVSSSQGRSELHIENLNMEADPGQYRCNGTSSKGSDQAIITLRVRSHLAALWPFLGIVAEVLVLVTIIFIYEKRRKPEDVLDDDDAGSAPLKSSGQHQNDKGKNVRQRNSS

| Compound | IC50 (MCT1) [nM] | Human microsome % 60 min [1] [%] | Rat microsome % 60 min [2] [%] | Mouse microsome % 60 min [3] [%] | Mouse microsome t1/2, min [3] | bioavailability [4] [%] | Human microsome t1/2, min ([1]; in vitro t1/2) | Difference in Weight Bearing, Minimal Efficacious Dose (CFA-induced arthritis [5]) [mg/kg] | Mechanical Allodynia (Von Frey), Minimal Efficacious Dose (CFA-induced arthritis [6]) [mg/kg] |
| --- | --- | --- | --- | --- | --- | --- | --- | --- | --- |
| CC(C)(OCc1cc(-c2cccc(CN3CCOCC3)c2)n(Cc2ccccc2Cl)n1)C(=O)O [Example 40, 2-([1-[(2-Chlorophenyl)methyl]-5-[3-(morpholinomethyl)phenyl]1H-pyrazol-3-yl]methoxy)-2-methylpropanoic acid] | > 100000 |  |  |  |  |  |  |  |  |
| Cc1ccccc1-n1nc(COC(C)(C)C(=O)O)cc1-c1cccc(OC2CCC2)c1 [Example 161, 2-([5-(3-Cyclobutoxyphenyl)-1-(2-methylphenyl)-1H-pyrazol-3-yl]-methoxy)-2-methylpropanoic acid] |  | 82 | 80 | 99 | ∞ | 61 |  | ≤10 | ≤10 |
| CC(C)(OCc1cc(-c2cccc(OC3CCC3)c2)n(-c2ccccc2Cl)n1)C(=O)O [Example 175, 2-([1-(2-Chlorophenyl)-5-(3-cyclo-butoxyphenyl)-1H-pyrazol-3-yl]-methoxy)-2-methylpropanoic acid] |  | 83 | 87 | 94 |  | 48 |  | >10 | >10 |
| Cn1ncc2cccc(-n3nc(COC(C)(C)C(=O)O)cc3-c3cccc(OC4CC4)c3)c21 [Example 191, 2-([5-(3-Cyclopropoxyphenyl)-1-(1-methyl-1H-indazol-7-yl)-1H-pyrazol-3-yl]methoxy)-2-methylpropanoic acid] |  | 98 | 94 | 97 |  | 97 |  | >10 | >10 |
| CCOc1ccccc1Cn1nc(COC(C)(C)C(=O)O)cc1-c1cccc(OC2CC2)c1 [Example 201, 2-([5-(3-Cyclopropoxyphenyl)-1-[(2-ethoxyphenyl)methyl]-1H-pyrazol-3-yl]-methoxy)-2-methylpropanoic acid] |  | 58 | 39 | 58 |  |  |  |  |  |
| CC(C)(OCc1cc(-c2cccc(OC3CC3)c2)n(Cc2ccccc2N2CCCC2)n1)C(=O)O [Example 202, 2-([5-(3-Cyclopropoxyphenyl)-1-[[2-(pyrrolidin-1-yl)phenyl]methyl]-1H-pyrazol-3-yl]methoxy)-2-methylpropanoic acid] |  | 32 | 2 | 32 |  |  |  |  |  |
| CC[C@@](C)(OCc1cc(-c2cc(OC)cc(OC)c2)n(-c2ccccc2Cl)n1)C(=O)O [Example 222, (2R)-2-([1-(2-Chlorophenyl)-5-(3,5-dimethoxyphenyl)-1H-pyrazol-3-yl]-methoxy)-2-methylbutanoic acid] |  | 110 | 90 | 94 |  |  | ∞ |  |  |

Now from value to molecule, other results behind:

| IC50 (MCT1) [nM] | Human microsome % 60 min [1] [%] | Rat microsome % 60 min [2] [%] | Mouse microsome % 60 min [3] [%] | Mouse microsome t1/2, min [3] | bioavailability [4] [%] | Human microsome t1/2, min ([1]; in vitro t1/2) | Compound | Difference in Weight Bearing, Minimal Efficacious Dose (CFA-induced arthritis [5]) [mg/kg] | Mechanical Allodynia (Von Frey), Minimal Efficacious Dose (CFA-induced arthritis [6]) [mg/kg] |
| --- | --- | --- | --- | --- | --- | --- | --- | --- | --- |
| > 100000 |  |  |  |  |  |  | CC(C)(OCc1cc(-c2ccsc2)n(Cc2ccccc2Cl)n1)C(=O)O [Example 24, 2-([1-[(2-Chlorophenyl)methyl]-5-(thien-3-yl)1H-pyrazol-3-yl]methoxy)-2-methylpropanoic acid] |  |  |
| > 11000 |  |  |  |  |  |  | CC(C)(OCc1cc(-c2cccc(OC(F)(F)F)c2)n(Cc2ccccc2Cl)n1)C(=O)O [Example 34, 2-([1-[(2-Chlorophenyl)methyl]-5-[3-(trifluoromethoxy)phenyl]1H-pyrazol-3-yl]methoxy)-2-methylpropanoic acid] |  |  |
|  | 93 | 85 | 98 | ∞ | 76 |  | COc1cc(OC)cc(-c2cc(COC(C)(C)C(=O)O)nn2-c2ccccc2Cl)c1 [Example 179, 2-([1-(2-Chlorophenyl)-5-(3,5-dimethoxyphenyl)-1H-pyrazol-3-yl]-methoxy)-2-methylpropanoic acid] | ≤10 | ≤10 |
|  | 88 | 98 |  | ∞ | 49 |  | CCOc1cc(OCC)cc(-c2cc(COC(C)(C)C(=O)O)nn2-c2ccccc2Cl)c1 [Example 180, 2-([1-(2-Chlorophenyl)-5-(3,5-diethoxy-phenyl)-1H-pyrazol-3-yl]methoxy)-2-methylpropanoic acid] | >10 | >10 |
|  | 80 | 82 | 84 |  |  |  | CCOc1ccccc1Cn1nc(COC(C)(C)C(=O)O)cc1-c1ccc2cnn(CC)c2c1 [Example 198, 2-([1-[(2-Ethoxyphenyl)methyl]-5-(1-ethyl-1H-indazol-6-yl)-1H-pyrazol-3-yl]methoxy)-2-methylpropanoic acid] |  |  |
|  | 56 | 33 | 34 |  |  |  | CC(C)(OCc1cc(-c2cccc(OC3CC3)c2)n(-c2ccccc2N2CCCC2)n1)C(=O)O [Example 221, 2-([5-(3-Cyclopropoxyphenyl)-1-[2-(pyrrolidin-1-yl)phenyl]-1H-pyrazol-3-yl]methoxy)-2-methylpropanoic acid] |  |  |
|  | 91 | 73 | 98 |  | 53 |  | COc1cc(OC)cc(-c2cc(COC(C)(C)C(=O)O)nn2Cc2ccccc2Cl)c1 [Example 224, 2-([1-[(2-Chlorophenyl)methyl]-5-(3,5-dimethoxyphenyl)-1H-pyrazol-3-yl]-methoxy)-2-methylpropanoic acid] | ≤10 | ≤10 |
|  | 95 | 88 | 95 |  |  |  | Cn1ncc2ccc(-c3cc(COC(C)(C)C(=O)O)nn3Cc3ccccc3Cl)cc21 [Example 226, 2-([1-[(2-Chlorophenyl)methyl]-5-(1-methyl-1H-indazol-6-yl)-1H-pyrazol-3-yl]methoxy)-2-methylpropanoic acid] |  |  |
|  | 88 | 88 | 97 |  |  |  | CCOc1cccc(-n2nc(COC(C)(C)C(=O)O)cc2-c2cc(OC)cc(OC)c2)c1 [Example 243, 2-([5-(3,5-Dimethoxyphenyl)-1-(3-ethoxyphenyl)-1H-pyrazol-3-yl]-methoxy)-2-methylpropanoic acid] |  |  |
|  | 65 | 69 | 81 |  | 52 |  | CCCn1ncc2ccc(-c3cc(COC(C)(C)C(=O)O)nn3-c3ccccc3N3CCC3)cc21 [Example 246, 2-([1-[2-(Azetidin-1-yl)phenyl]-5-(1-propyl-1H-indazol-6-yl)-1H-pyrazol-3-yl]methoxy)-2-methylpropanoic acid] |  |  |
|  | 77 | 83 | 63 |  | 98 |  | COc1cc(OC)cc(-c2cc(COC(C)(C)C(=O)O)nn2-c2ccccc2N2CCC2)c1 [Example 251, 2-((1-(2-(Azelidin-1-yl)phenyl)-5-(3,5-dimethoxyphenyl)-1H-pyrazol-3-yl)methoxy)-2-methylpropanoic acid] |  |  |
